Source: patent US20090149432A1, “METHODS FOR ADMINISTERING CORTICOSTEROID FORMULATIONS” (priority 2007, published 2009)
Read-outs that look alike come from different tables or passages of the source.

Key:
[1] = system: hypothalamus-pituitary-adrenal (HPA) axis; test: ACTH-induced plasma cortisol levels in children after six weeks of treatment; format: in vivo, human (children); conditions: doses of Tables 3 and 4
Source text: An important measure of systemic exposure to corticosteroids is the level of endogenous cortisols in the blood. Excess exogenous corticosteroids will suppress natural production of cortisols due to the suppression of the adrenal cortex. […] Both these changes are statistically insignificant.

[2] = Plasma budesonide pharmacokinetics in asthmatic children, twice a day nebulization over six weeks; format: in vivo, human (asthmatic children); conditions: for AUC0-inf (geometric mean): nebulized; for AUC0-inf (geometric mean) / Cmax (geometric mean) / Cmax at 42 days / Cmax / half-life at 42 days / Tmax at 42 days / half-life / Tmax: asthmatic children; for Cmax at 42 days / Cmax / half-life at 42 days / Tmax at 42 days / half-life / Tmax / Tmax at 6 weeks: human, plasma, inhaled; for Cmax at 42 days / Cmax: read-out: Cmax (geometric mean); for half-life at 42 days / half-life: read-out: T1/2 (geometric mean); for Tmax at 42 days / Tmax: read-out: Tmax (geometric mean) (converted); for Tmax at 6 weeks: read-out: Tmax averaged over 6 weeks (converted)
Procedure: The budesonide was administered twice a day by a nebulizer for six weeks (42 days). In one subset, budesonide was administered at a dose of 0.25 mg. In the other subset, budesonide was administered at a dose of 0.135 mg.
Tmaxs averaged about 4.3 minutes (SD±0.63 minutes) for the two dosage strengths and time of treatment that ranged from zero to six weeks. […] The Cmaxs and AUCs (area under the curve) obtained for the two different dosage strengths were below levels that would induce side effects due to systemic exposure. […] Murphy et al.'s dosing regimen of 1.0 mg twice a day (bid) was the same as that for Pulmicort Respules when the pharmacokinetics of Pulmicort Respules was being assessed by Astrazeneca (Pharmacokinetics section of Pulmicort Respules label insert).

AUC0-inf (geometric mean) ([2]; 0.135 mg dose twice a day, Day 42): 22,071 pg-min/mL | AUC0-inf (geometric mean) ([2]; 0.135 mg dose twice a day, First Dose): 10,238 pg-min/mL | change of AUC0-inf ([2]; 0.135 mg dose, by week six of dosing): more than doubled | change of Cmax ([2]; 0.135 mg dose, initial dosing to week six): more than tripling | Cmax (geometric mean) ([2]; 0.135 mg dose, Day 42): 0.6721 ng/mL | Cmax (geometric mean) ([2]; 0.135 mg dose, First Dose): 0.2144 ng/mL | Cmax to AUC0-inf ratio ([2]; 0.135 mg dose, standard deviation less than approximately 0.006 min^−1): approximately 0.02 min^−1 | AUC0-inf (geometric mean) ([2]; 0.25 mg dose twice a day, Day 42): 33,116 pg-min/mL | AUC0-inf (geometric mean) ([2]; 0.25 mg dose twice a day, Day 42, listed as budesonide): about 33,116 pg-min/mL | AUC0-inf (geometric mean) ([2]; 0.25 mg dose twice a day, First Dose): 20,849 pg-min/mL | AUC0-inf (geometric mean) ([2]; 0.25 mg dose twice a day, First Dose, listed as budesonide): about 20,849 pg-min/mL | Cmax to AUC0-inf ratio ([2]; 0.25 mg dose, standard deviation less than approximately 0.007 min^−1): approximately 0.025 min^−1 | change of Cmax ([2]; 0.25 mg, after 42 days (six weeks) of dosing): at least double | increase of AUC0-inf, times its value at first dose ([2]; 0.25 mg, repeat dosing for six weeks): about 1.6 times | Cmax at 42 days ([2]; 0.135 mg, Day 42): ~0.672 ng/mL | Cmax ([2]; 0.135 mg, First Dose): ~0.214 ng/mL | Cmax at 42 days ([2]; 0.25 mg, Day 42): 0.746 ng/mL | Cmax ([2]; 0.25 mg, First Dose): 0.321 ng/mL | half-life at 42 days ([2]; 0.135 mg dose, Day 42): 71.3 min | Tmax at 42 days ([2]; 0.135 mg dose, Day 42): 4.4 min | half-life ([2]; 0.135 mg dose, First Dose): 42.1 min | Tmax ([2]; 0.135 mg dose, First Dose): 4.4 min | Tmax at 6 weeks ([2]; 0.135 mg dose): 4.4 min | half-life at 42 days ([2]; 0.25 mg dose, Day 42): 75.7 min | Tmax at 42 days ([2]; 0.25 mg dose, Day 42): 5 min | half-life ([2]; 0.25 mg dose, First Dose): 155 min | Tmax ([2]; 0.25 mg dose, First Dose): 3.3 min | Tmax at 6 weeks ([2]; 0.25 mg dose): 4.1 min
Compound: CCCC1O[C@@H]2C[C@H]3[C@@H]4CCC5=CC(=O)C=C[C@]5(C)[C@H]4[C@@H](O)C[C@]3(C)[C@]2(C(=O)CO)O1 (some centres unmarked) [Budesonide, budesonide]
HPA axis suppression [1]: no evidence of hypothalamus-pituitary-adrenal (HPA) axis suppression
